Assay results taken from patent US6229016A, “Method for treating tumors using 2-aryl-naphthyridin-4-ones” (priority 2000, dated 2001).

Assays:
Type in all cases: cell-based
[1] = tested on: HL-60(TB) leukemia cell line; test: cells; settings: Homo sapiens; HL-60(TB); read-out: Cytotoxicity log GI50 (converted)
[2] = tested on: OVCAR-3 ovarian cancer cell line; test: NCI in vitro screen, ovarian cancer OVCAR-3; settings: Homo sapiens, read-out: Cytotoxicity log GI50 (converted)
[3] = tested on: MDA-MB-435 breast cancer cell line; test: NCI in vitro screen, breast cancer MDA-MB-435; settings: Homo sapiens, read-out: Cytotoxicity log GI50 (converted)
[4] = tested on: MDA-N breast cancer cell line; test: NCI in vitro screen, breast cancer MDA-N; settings: Homo sapiens, read-out: Cytotoxicity log GI50 (converted)
Description: (§1) Compounds 41-51 and 53-68 were submitted to NCI and assayed in the NCI's in vitro disease-oriented antitumor screen, which involves determination of a test compound's effects on the growth of approximately 60 human tumor cell lines. See, M. R. Boyd, et al. In Cancer: Principles and Practice of Oncology Updates; De Vita, V. T., Hellman, S., Rosenberg, S. A., Eds; J. B. Lippincoft: Philadelphia, pp 1-12 (1989); and A. Monks, et al. J. Natl. Cancer Inst. 83:757 (1991). These lines include leukemia, non-small cell lung, colon, central nervous system (CNS), melanoma, ovarian, renal, prostate, and breast cancers.
(§2) Compounds 29'-51' were submitted to NCI and assayed in the NCI's in vitro disease-oriented antitumor screen, using the techniques described in Example 5. This assay involves determinations of a test agent's effect on growth parameters against a panel of approximately 60 human tumor cell lines, derived largely from solid tumors, including non-small cell lung, colon, central nervous system, renal, ovarian, prostate, and breast cancers, plus a few leukemia cell lines. The cytotoxic effects of each compound are obtained as GI50 or […] values, which represent the molar drug concentrations required to cause half growth inhibition and total growth inhibition, respectively. The results are expressed for each cell line as average log GI50 values in Table 4, as log GI50 values in Table 5, and as log TGI values and average log TGI values in Table 6.

[5] = tested on: SF-295 CNS cancer cell line; test: NCI in vitro screen, CNS cancer SF-295; settings: Homo sapiens, read-out: Cytotoxicity log GI50 (converted)
[6] = tested on: 786-0 renal cancer cell line; test: NCI in vitro screen, renal cancer 786-0; settings: Homo sapiens, read-out: Cytotoxicity log GI50 (converted)
Description: as §1, §2

[7] = tested on: NCI-H460 non-small cell lung cancer cell line; test: NCI in vitro screen, non-small cell lung cancer NCI-H460; settings: Homo sapiens, read-out: Cytotoxicity log GI50 (converted)
[8] = tested on: NCI's 60 human tumor cell line; test: NCI 60 human tumor cell line in vitro screen (average / whole panel); settings: calculated from all cell lines tested, molar concentrations, read-out: average log GI50 (converted)
[9] = tested on: PC-3 prostate cancer cell line; test: NCI in vitro screen, prostate cancer PC-3; settings: Homo sapiens, read-out: Cytotoxicity log GI50 (converted)
Description: as §1, §2

[10] = tested on: U-251 CNS cancer cell line; test: NCI in vitro screen, CNS cancer U-251; settings: Homo sapiens, read-out: Cytotoxicity log GI50 (converted)
[11] = tested on: SK-MEL-5 melanoma cell line; test: NCI in vitro screen, melanoma SK-MEL-5; settings: Homo sapiens, read-out: Cytotoxicity log GI50 (converted)
Description: as §1, §2

[12] = tested on: HCT-116 colon cancer cell line; test: NCI in vitro screen, colon cancer HCT-116; settings: Homo sapiens; HCT-1.16 (head); HCT-116 (footnote); read-out: Cytotoxicity log GI50 (converted)

Compound | GI50 [1] | GI50 [2] | GI50 [3] | GI50 [4] | GI50 [5] | GI50 [6] | GI50 [7] | GI50 [8] | GI50 [9] | GI50 [10] | GI50 [11] | GI50 [12]
Cc1cnc2[nH]c(-c3cccc(F)c3)cc(=O)c2c1 [29'] | 20.4 nM | 13.5 nM | < 10 nM | 11.7 nM | 27.5 nM | 28.2 nM | 38.9 nM | 50.1 nM | 34.7 nM | 40.7 nM | 28.2 nM | 24 nM
Cc1ccc2c(=O)cc(-c3cccc(F)c3)[nH]c2n1 [30'] | 22.4 nM | 19.5 nM | 12.3 nM | 14.5 nM | 28.8 nM | 45.7 nM | 33.1 nM | 42.7 nM | 34.7 nM | 38 nM | 22.4 nM | 28.2 nM
Cc1cc(C)c2c(=O)cc(-c3cccc(F)c3)[nH]c2n1 [31'] | 37.2 nM | 18.2 nM | < 10 nM | 12.9 nM | 33.1 nM | 35.5 nM | 53.7 nM | 85.1 nM | 61.7 nM | 64.6 nM | 37.2 nM | < 10 nM
O=c1cc(-c2cccc(Cl)c2)[nH]c2ncccc12 [32'] | 10.5 nM | 45.7 nM | < 10 nM | 17.4 nM | 63.1 nM | 56.2 nM | 87.1 nM | 229 nM | 22.4 nM | 145 nM | 52.5 nM | 28.8 nM
Cc1ccnc2[nH]c(-c3cccc(Cl)c3)cc(=O)c12 [33'] | 10 nM | 31.6 nM | < 10 nM | 11.7 nM | 40.7 nM | 33.1 nM | 38.9 nM | 158 nM | 15500 nM | 52.5 nM | 41.7 nM | 15.8 nM
Cc1cnc2[nH]c(-c3cccc(Cl)c3)cc(=O)c2c1 [34'] | 30.9 nM | 22.4 nM | < 10 nM | > 100000 nM | 25.1 nM | 42.7 nM | 50.1 nM | 269 nM | > 100000 nM | 69.2 nM | 70.8 nM | 30.2 nM
Cc1ccc2c(=O)cc(-c3cccc(Cl)c3)[nH]c2n1 [35'] | 28.8 nM | < 10 nM | < 10 nM | > 100000 nM | 22.9 nM | 41.7 nM | 41.7 nM | 170 nM | > 100000 nM | 64.6 nM | 31.6 nM | 25.7 nM
Cc1cc(C)c2c(=O)cc(-c3cccc(Cl)c3)[nH]c2n1 [36'] | 74.1 nM | 170 nM | 13.2 nM | 19.1 nM | 47.9 nM | 204 nM | 224 nM | 347 nM | 27.5 nM | 295 nM | 117 nM | 170 nM
Cc1cccc(-c2cc(=O)c3cccnc3[nH]2)c1 [37'] | 19.1 nM | 41.7 nM | < 10 nM | < 10 nM | 37.2 nM | 37.2 nM | 25.7 nM | 95.5 nM | 42.7 nM | 44.7 nM | 25.7 nM | 22.4 nM
Cc1cccc(-c2cc(=O)c3c(C)ccnc3[nH]2)c1 [38'] | 18.2 nM | 22.4 nM | < 10 nM | 11 nM | 30.2 nM | 53.7 nM | 36.3 nM | 57.5 nM | 33.1 nM | 53.7 nM | 33.9 nM | 46.8 nM
Cc1cccc(C2=Nc3ncc(C)cc3C(=O)C2)c1 [Compound 39, 2-(3'-Methylphenyl)-6-methyl-1,8-naphthyridin-4-one] | 174 nM | 251 nM | < 10 nM | < 10 nM | 417 nM | 437 nM | – | 646 nM | 309 nM | 170 nM | 288 nM | 407 nM
COc1ccccc1-c1cc(=O)c2cccnc2[nH]1 [Compound 39] | 38900 nM | 47900 nM | 39800 nM | 20000 nM | 23400 nM | 36300 nM | 38900 nM | 40700 nM | 29500 nM | 67600 nM | 31600 nM | 27500 nM
Cc1cccc(C2=Nc3nc(C)ccc3C(=O)C2)c1 [Compound 40, 2-(3'-Methylphenyl)-7-methyl-1,8-naphthyridin-4-one] | 26.9 nM | 490 nM | 32.4 nM | 31.6 nM | 60.3 nM | 427 nM | 17.8 nM | 97.7 nM | 138 nM | 200 nM | 126 nM | 120 nM
COc1ccccc1-c1cc(=O)c2c(C)ccnc2[nH]1 [Compound 40] | 20900 nM | 12900 nM | 6460 nM | 8320 nM | 23400 nM | 60300 nM | 24000 nM | 2820 nM | 20900 nM | 35500 nM | 22400 nM | 7590 nM
Cc1cccc(C2=Nc3nc(C)cc(C)c3C(=O)C2)c1 [Compound 41, 2-(3'-Methylphenyl)-5,7-dimethyl-1,8-naphthyridin-4-one] | 12900 nM | 30200 nM | 20000 nM | 20900 nM | 64600 nM | 56200 nM | 44700 nM | – | 31600 nM | 53700 nM | 34700 nM | 17800 nM
COc1ccccc1-c1cc(=O)c2cc(C)cnc2[nH]1 [Compound 41] | 9550 nM | 19500 nM | 3020 nM | 4470 nM | 30900 nM | 41700 nM | 32400 nM | 31600 nM | 26900 nM | 27500 nM | 20400 nM | 42700 nM
O=C1CC(c2cccc3ccccc23)=Nc2ncccc21 [Compound 42, 2-(α-Naphthyl)-1,8-naphthyridin-4-one] | < 10 nM | < 10 nM | < 10 nM | < 10 nM | < 10 nM | 15.1 nM | 38.9 nM | – | 17.8 nM | 10.2 nM | < 10 nM | < 10 nM
COc1ccccc1-c1cc(=O)c2ccc(C)nc2[nH]1 [Compound 42] | 74100 nM | > 100000 nM | 21900 nM | 20000 nM | > 100000 nM | > 100000 nM | 97700 nM | 79400 nM | > 100000 nM | > 100000 nM | 51300 nM | 38000 nM
Cc1ccnc2c1C(=O)CC(c1cccc3ccccc13)=N2 [Compound 43, 2-(α-Naphthyl)-5-methyl-1,8-naphthyridin-4-one] | < 10 nM | < 10 nM | < 10 nM | < 10 nM | 10.7 nM | 12 nM | < 10 nM | 35.5 nM | 20 nM | < 10 nM | < 10 nM | < 10 nM
COc1ccccc1-c1cc(=O)c2c(C)cc(C)nc2[nH]1 [Compound 43] | 30200 nM | 64600 nM | 32400 nM | 33100 nM | 53700 nM | > 100000 nM | 70800 nM | 57500 nM | 47900 nM | > 100000 nM | 33900 nM | 74100 nM
Cc1cnc2c(c1)C(=O)CC(c1cccc3ccccc13)=N2 [Compound 44, 2-(α-Naphthyl)-6-methyl-1,8-naphthyridin-4-one] | < 10 nM | < 10 nM | < 10 nM | < 10 nM | < 10 nM | < 10 nM | < 10 nM | 19.1 nM | < 10 nM | < 10 nM | < 10 nM | < 10 nM
